Experimental data as given in patent US20250206727A1, “HETEROCYCLIC SUBSTITUTED AROMATIC COMPOUND, PREPARATION METHOD THEREFOR, HERBICIDAL COMPOSITION AND APPLICATION” (QINGDAO KINGAGROOT CHEMICAL COMPOUND CO., LTD., priority 2022, published 2025).

Assays:
Assay in all cases: Post-emergence test on weeds (greenhouse, spray at 2-3 leaf stage)
Type in all cases: in vivo
Design in all cases: key: Level 10: completely dead; Level 9: growth control rate greater than or equal to 90% and less than 100%; Level 8: growth control rate greater than or equal to 80% and less than 90%; Level 7: growth control rate greater than or equal to 70% and less than 80%; Level 6: growth control rate greater than or equal to 60% and less than 70%; Level 5: growth control rate greater than or equal to 50% and less than 60%; Level 4: growth control rate greater than or equal to 40% and less than 50%; Level 3: growth control rate greater than or equal to 30% and less than 40%; Level 2: growth control rate greater than or equal to 20% and less than 30%; Level 1: growth control rate less than 20%; Level 0: no effect
Details in all cases: 60 g a.i./ha, 3 weeks after application
Abutilon theophrasti = system: Abutilon theophrasti
Outline: (§1)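 Greenhouse pot-grown weeds were sprayed by spray tower at the 2-3 leaf stage, about two weeks after sowing, with acetone/Tween 80 solutions plus 1.5 L/ha methyl oleate EC synergist at 500, 250, […], 15 and 7.5 g a.i./ha. Fresh-weight growth control was scored 0-10 after 3 weeks, triplicate averaged.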

Amaranthus retroflexus = system: Amaranthus retroflexus
Outline: as §1

Digitaria sanguinalis = system: Digitaria sanguinalis
Outline: as §1

Echinochloa crus-galli = system: Echinochloa crus-galli
Outline: as §1

Setaria viridis = system: Setaria viridis
Outline: as §1

Veronica polita = system: Veronica polita
Outline: as §1

C=CCCCOC(=O)C1(C)ON=C(c2cc(-c3ncc(C(F)(F)F)cc3Cl)c(F)cc2Cl)O1 (stereo not drawn) [Compound 106]
10: activity level (fresh weight growth control rate), Abutilon theophrasti (Abutilon theophrasti) | activity level (fresh weight growth control rate), Amaranthus retroflexus (Amaranthus retroflexus) | activity level (fresh weight growth control rate), Digitaria sanguinalis (Digitaria sanguinalis) | activity level (fresh weight growth control rate), Echinochloa crus-galli (Echinochloa crus-galli) | activity level (fresh weight growth control rate), Setaria viridis (Setaria viridis) | activity level (fresh weight growth control rate), Veronica polita (Veronica polita)

COCOC(=O)C1(C)ON=C(c2cc(-c3ncc(C(F)(F)F)cc3Cl)c(F)cc2Cl)O1 (stereo not drawn) [Compound 108]
10: activity level (fresh weight growth control rate), Abutilon theophrasti (Abutilon theophrasti) | activity level (fresh weight growth control rate), Amaranthus retroflexus (Amaranthus retroflexus) | activity level (fresh weight growth control rate), Digitaria sanguinalis (Digitaria sanguinalis) | activity level (fresh weight growth control rate), Echinochloa crus-galli (Echinochloa crus-galli) | activity level (fresh weight growth control rate), Setaria viridis (Setaria viridis) | activity level (fresh weight growth control rate), Veronica polita (Veronica polita)

CSCOC(=O)C1(C)ON=C(c2cc(-c3ncc(C(F)(F)F)cc3Cl)c(F)cc2Cl)O1 (stereo not drawn) [Compound 109]
10: activity level (fresh weight growth control rate), Abutilon theophrasti (Abutilon theophrasti) | activity level (fresh weight growth control rate), Amaranthus retroflexus (Amaranthus retroflexus) | activity level (fresh weight growth control rate), Digitaria sanguinalis (Digitaria sanguinalis) | activity level (fresh weight growth control rate), Echinochloa crus-galli (Echinochloa crus-galli) | activity level (fresh weight growth control rate), Setaria viridis (Setaria viridis) | activity level (fresh weight growth control rate), Veronica polita (Veronica polita)

COCCOC(=O)C1(C)ON=C(c2cc(-c3ncc(C(F)(F)F)cc3Cl)c(F)cc2Cl)O1 (stereo not drawn) [Compound 110]
10: activity level (fresh weight growth control rate), Abutilon theophrasti (Abutilon theophrasti) | activity level (fresh weight growth control rate), Amaranthus retroflexus (Amaranthus retroflexus) | activity level (fresh weight growth control rate), Digitaria sanguinalis (Digitaria sanguinalis) | activity level (fresh weight growth control rate), Echinochloa crus-galli (Echinochloa crus-galli) | activity level (fresh weight growth control rate), Setaria viridis (Setaria viridis) | activity level (fresh weight growth control rate), Veronica polita (Veronica polita)

COCCOC(=O)C1(C)ON=C(c2cc(-c3ncc(Cl)cc3Cl)c(F)cc2Cl)O1 (stereo not drawn) [Compound 111]
10: activity level (fresh weight growth control rate), Abutilon theophrasti (Abutilon theophrasti) | activity level (fresh weight growth control rate), Amaranthus retroflexus (Amaranthus retroflexus) | activity level (fresh weight growth control rate), Digitaria sanguinalis (Digitaria sanguinalis) | activity level (fresh weight growth control rate), Echinochloa crus-galli (Echinochloa crus-galli) | activity level (fresh weight growth control rate), Setaria viridis (Setaria viridis) | activity level (fresh weight growth control rate), Veronica polita (Veronica polita)

COCCOC(=O)C1ON=C(c2cc(-c3ncc(C(F)(F)F)cc3Cl)c(F)cc2Cl)O1 (stereo not drawn) [Compound 112]
10: activity level (fresh weight growth control rate), Abutilon theophrasti (Abutilon theophrasti) | activity level (fresh weight growth control rate), Amaranthus retroflexus (Amaranthus retroflexus) | activity level (fresh weight growth control rate), Digitaria sanguinalis (Digitaria sanguinalis) | activity level (fresh weight growth control rate), Echinochloa crus-galli (Echinochloa crus-galli) | activity level (fresh weight growth control rate), Setaria viridis (Setaria viridis) | activity level (fresh weight growth control rate), Veronica polita (Veronica polita)

COCCCOC(=O)C1(C)ON=C(c2cc(-c3ncc(C(F)(F)F)cc3Cl)c(F)cc2Cl)O1 (stereo not drawn) [Compound 114]
10: activity level (fresh weight growth control rate), Abutilon theophrasti (Abutilon theophrasti) | activity level (fresh weight growth control rate), Amaranthus retroflexus (Amaranthus retroflexus) | activity level (fresh weight growth control rate), Digitaria sanguinalis (Digitaria sanguinalis) | activity level (fresh weight growth control rate), Echinochloa crus-galli (Echinochloa crus-galli) | activity level (fresh weight growth control rate), Setaria viridis (Setaria viridis) | activity level (fresh weight growth control rate), Veronica polita (Veronica polita)

COCCCOC(=O)C1ON=C(c2cc(-c3ncc(C(F)(F)F)cc3Cl)c(F)cc2Cl)O1 (stereo not drawn) [Compound 115]
10: activity level (fresh weight growth control rate), Abutilon theophrasti (Abutilon theophrasti) | activity level (fresh weight growth control rate), Amaranthus retroflexus (Amaranthus retroflexus) | activity level (fresh weight growth control rate), Digitaria sanguinalis (Digitaria sanguinalis) | activity level (fresh weight growth control rate), Echinochloa crus-galli (Echinochloa crus-galli) | activity level (fresh weight growth control rate), Setaria viridis (Setaria viridis) | activity level (fresh weight growth control rate), Veronica polita (Veronica polita)

CC(C#N)OC(=O)C1(C)ON=C(c2cc(-c3ncc(C(F)(F)F)cc3Cl)c(F)cc2Cl)O1 (stereo not drawn) [Compound 116]
10: activity level (fresh weight growth control rate), Abutilon theophrasti (Abutilon theophrasti) | activity level (fresh weight growth control rate), Amaranthus retroflexus (Amaranthus retroflexus) | activity level (fresh weight growth control rate), Digitaria sanguinalis (Digitaria sanguinalis) | activity level (fresh weight growth control rate), Echinochloa crus-galli (Echinochloa crus-galli) | activity level (fresh weight growth control rate), Setaria viridis (Setaria viridis) | activity level (fresh weight growth control rate), Veronica polita (Veronica polita)

CC1(C(=O)OCC2CC2)ON=C(c2cc(-c3ncc(C(F)(F)F)cc3Cl)c(F)cc2Cl)O1 (stereo not drawn) [Compound 126]
10: activity level (fresh weight growth control rate), Abutilon theophrasti (Abutilon theophrasti) | activity level (fresh weight growth control rate), Amaranthus retroflexus (Amaranthus retroflexus) | activity level (fresh weight growth control rate), Digitaria sanguinalis (Digitaria sanguinalis) | activity level (fresh weight growth control rate), Echinochloa crus-galli (Echinochloa crus-galli) | activity level (fresh weight growth control rate), Setaria viridis (Setaria viridis) | activity level (fresh weight growth control rate), Veronica polita (Veronica polita)

CC1(C(=O)OC2CCCC2)ON=C(c2cc(-c3ncc(C(F)(F)F)cc3Cl)c(F)cc2Cl)O1 (stereo not drawn) [Compound 127]
10: activity level (fresh weight growth control rate), Abutilon theophrasti (Abutilon theophrasti) | activity level (fresh weight growth control rate), Amaranthus retroflexus (Amaranthus retroflexus) | activity level (fresh weight growth control rate), Digitaria sanguinalis (Digitaria sanguinalis) | activity level (fresh weight growth control rate), Echinochloa crus-galli (Echinochloa crus-galli) | activity level (fresh weight growth control rate), Setaria viridis (Setaria viridis) | activity level (fresh weight growth control rate), Veronica polita (Veronica polita)
